Laboratory results published in article PMC11284787, “Ligand-Directed Labeling of the Adenosine A1 Receptor in Living Cells” (Journal of Medicinal Chemistry, 2024).

Test system: T1, SNAP-hA1AR
T1 construct: expressed in transfected cells; host or cells: HEK293T, transient transfection (FuGENE HD)
Assay: Live-cell confocal microscopy of SNAP-hA1AR HEK293T cells
Type: cell-based, human
Details: for fluorescent labeling of SNAP-hA1AR at the plasma membrane: 125 nM 11 or 50 nM 12 (then MetTet-SulfoCy5) for 2 h; for labeling of SNAP-hA1AR after pretreatment with 10 μM DPCPX: 10 μM DPCPX pretreatment 30 min; for fluorescence intensity after 10 μM DPCPX added to prelabeled cells: prelabeled 2 h, then 10 μM DPCPX 1 h, P > 0.05
Excerpt: Having investigated the molecular pharmacology of 11 and 12 in a series of in vitro assays, we sought to apply the LD probes for studying A1AR localization and dynamics in living cells. To this end, LD probes 11 and 12 were initially used in confocal microscopy studies to test their ability to label and allow visualization of the SNAP-hA1AR in living HEK293T cells (Figure 6). […] With both probes, the fluorescence labeling colocalized with SNAP-hA1AR labeled with AF488 (Figure 6A,C top frames).
Cells were labeled with membrane impermeable SNAP-AF488 for 30 min prior to treatment with 11 and 12 for 2 h, respectively, with the latter followed by the addition of 1 μM methyltetrazine (Met-Tet) SulfoCy5 for 5 min prior to the acquisition of the single equatorial images. […] For all the conditions, left-hand frames represent the SulfoCy5 channel (magenta), middle frames are the SNAP-hA1AR AF488 (green) channel, and right-hand frames represent merged images of both channels, with white indicating the overlap of magenta and green. (B, E) Fluorescence intensity plots (16-bit) were generated for both SulfoCy5 and AF488 channels by hand drawing the region of interest (ROI) in images obtained as indicated in (A) and (C) using ImageJ (FIJI). Data points represent membrane fluorescence signals measured from ROI drawn in each cell, and error bars represent mean ± standard deviation (SD). Images are representative of images obtained from three independent experiments from which 72 to 83 cells were analyzed. Scale bars are = 13 μm for (A) and 10 μm for (C). (D) Schematic representation of the biorthogonal IEDDA reaction between the TCO group (covalently attached to the hA1AR by ligand-directed chemistry) and SulfoCy5-conjugated methyltetrazine (MetTet-SulfoCy5). Following the click IEDDA reaction, the formation of the 4,5-dihydropyridazine cycloadduct increases the fluorescence intensity of the fluorophore conjugated to the tetrazine moiety. […]
using a Zeiss LSM880 confocal microscope as described in the confocal imaging […]
HEK293T cells were seeded in 8-well plates (Nunc Lab-Tek, Thermo Fischer Scientific), pre-coated with Poly-D-Lysine, at 20,000 cells/well in DMEM/10% FCS.
24 h post seeding, cells were transiently transfected with human SNAP-A1. Transient transfections were carried out following manufacturer’s protocol: used FuGENE HD at 3:1 ratio of reagent to cDNA with a total of 300 ng cDNA per well. Transfection solutions were made up in Gibco Opti-MEM (Thermo Fischer Scientific), incubated at RT for 5 min and added as 11 µL per well. Cells were incubated for additional 24 h at 37 OC, 5% CO2. On the day of the experiment medium was removed and the cells were labelled for 30 min at 37 °C with 0.2 µM SNAP-surface AF488 in SFM. After washing twice with SFM the cells were treated with or without 10 µM competitive A 1AR- […]
Following the incubation step, the ligand-directed probe under investigation (SulfoCy5 or PEG-TCO) (11 or 12) was added to the appropriate wells at the required concentrations and incubated for 2 h. After that time, cells were washed 4x with warm HBSS, followed by the addition of 300 µL warm HBSS and imaged. For click-chemistry reactions, after washing 4x with warm HBSS, cells pre-labelled with the trans-cyclooctene-conjugated 12 (PEG-TCO) at 50 nM were subsequently treated with 1 µM Methyl-TetrazineSulfoCy5 (Lumiprobe, Germany) for 5 min at RT in the dark. Cells were washed 2x with warm HBSS and imaged. When […]
1 h before imaging. […]
Live cell imaging was performed using either a Zeiss LSM 710 or LSM880 laser scanning confocal microscope fitted with a Zeiss C-Apochromat 40 × 1.2 NA water immersion objective. A 633 nm HeNe laser was used for the excitation of SulfoCy5 fluorophore and a 488/561/633 dichroic, and the emission was detected between 634 […]
and 755 nm. A 488 nm […] laser was used to excite SNAP-AF488 and the emission was detected between 493 and 586 nm. The pinhole diameter (1 Airy Unit; 1.1 μm […]

SMILES | fluorescent labeling of SNAP-hA1AR at the plasma membrane | labeling of SNAP-hA1AR after pretreatment with 10 μM DPCPX | fluorescence intensity after 10 μM DPCPX added to prelabeled cells
CCCCn1c(=O)c2[nH]c(C34CCC(C(=O)NCCNC(=O)CCNC(=O)c5ccc(OC(=O)CCCCC[N+]6=C(/C=C/C=C/C=C7/N(C)c8ccc(S(=O)(=O)O)cc8C7(C)C)C(C)(C)c7cc(S(=O)(=O)[O-])ccc76)c(F)c5)(CC3)CC4)nc2n(CCCC)c1=O [Compound 11, 1-(6-(4-((3-((2-(4-(1,3-Dibutyl-2,6-dioxo-2,3,6,7-tetrahydro-1H-purin-8-yl)bicyclo[2.2.2]octane-1-carboxamido)ethyl)amino)-3-oxopropyl)carbamoyl)-2-fluorophenoxy)-6-oxohexyl)-3,3-dimethyl-2-((1E,3E)-5-((E)-1,3,3-trimethyl-5-sulfoindolin-2-ylidene)penta-1,3-dien-1-yl)-3H-indol-1-ium-5-sulfonate] | Clear fluorescent labeling | prevented the labeling | did not change their fluorescence intensities
CCCCn1c(=O)c2[nH]c(C34CCC(C(=O)NCCNC(=O)CCNC(=O)c5ccc(OC(=O)CCC(=O)NCCOCCOCCNC(=O)O[C@H]6CC/C=C/CCC6)c(F)c5)(CC3)CC4)nc2n(CCCC)c1=O [Compound 12, 4-((3-((2-(4-(1,3-Dibutyl-2,6-dioxo-2,3,6,7-tetrahydro-1H-purin-8-yl)bicyclo[2.2.2]octane-1-carboxamido)ethyl)amino)-3-oxopropyl)carbamoyl)-2-fluorophenyl (R,E)-1-(Cyclooct-4-en-1-yloxy)-1,12-dioxo-5,8-dioxa-2,11-diazapentadecan-15-oate] | Clear fluorescent labeling | prevented the labeling | did not change their fluorescence intensities
